{"source": "patent US20110039935A1", "about": "“USE OF PHARMACOLOGICALLY ACTIVE CHEMICAL COMPOUNDS” (ENTRESS AB, priority 2007, published 2011)", "key": {"[1]": {"tested_on": "excised aorta sections of elderly mice", "test": "Robustness of aorta sections to stretch (successful stretches without rupture)", "assay_type": "in vivo, NMRI mice", "details": "for number of successful stretches without rupture, First Replicate / number of successful stretches without rupture, Second Replicate: 0.49 N max. tension stepwise, control 4 out of 6; for successful stretches without rupture, Mean (%): mean of two replicates, control 66.7", "experimental": "(§1) Female NMRI mice, aged 50 weeks at the start of the trial, were housed at the animal facilities of the Department of Cell & Organism Biology, Lund University, Sweden. The animals were raised under the same conditions with a 12/12 hour light-dark cycle. Mice were fed rodent pellets ad libitum (Altromin no. 1314 Spezialfutterwerke, Lage, Germany) and given free access to drinking water. […] Mice in Group 1 were fed rodent pellets plus (2% w/v) Na2−AKG 2H2O (n=6), whilst mice in Group 2 were fed rodent pellets plus (2% w/v) Ca−AKG H2O (n=6). Mice allocated to Group 3 were only fed rodent pellets and were considered to be the Control group (n=6). The level of AKG fed as a supplement to the diet represented 2% of the voluntary feed intake of the mice, which was approx. 10-15% of body weight per day.\n(§2) Aorta sections were suspended vertically, and in duplicate. The recorded signal was adjusted to zero for un-tensioned aorta sections with the aid of an offset dial mounted on the pre-amplifier unit. Each aorta section was then exposed to approx. 5 step-wise increases in tension (each step being approx. 0.09 N), until a final maximal tension of 0.49 N (measured using the FT03 Grass Force transducer) was achieved. This final level of tension was by no means close to the physiological maximum force recorded in aorta sections. The aorta sections were then allowed to relax totally before being exposed to repeat step-wise increases in tension a further two more times, in close succession. Aorta sections were subsequently removed and weighed.\nIn all the arteries studied, the initial stretch series (e.g. application of tension followed by relaxation) led to a decrease in elasticity with subsequent applications of tension. This effect may be compared to the sort of damage that would be expected to arise with a sudden increase in blood pressure (see FIG. 5)."}, "[2]": {"tested_on": "abdominal aorta sections of elderly mice", "details": "for elasticity of aorta sections (elastic recoil), first series of stretches: control 3.3×10^−5; for decrease in elastic recoil, second versus first series: repeated stretching protocol, control approximately 90%", "experimental": "This time, experimental subjects that were in need of increased artery elasticity for a more general reason, namely advanced age, were studied.\nas §1, with “Mice” for “Mice in Group 1 were fed rodent pellets plus (2% w/v) Na2−AKG 2H2O (n=6), whilst mice in Group 2 were fed rodent pellets plus (2% w/v) Ca−AKG H2O (n=6). Mice”\nThe mice were anaesthetized by exposure to 95% CO2 and killed by cervical dislocation. A dissected portion of the abdominal aorta, prior to the right- and left common iliac arteries, was carefully cleaned to remove adhering tissues. The aorta was cut into approx. 4.5 mm pieces with a diameter at rest of approx. 1 mm, and each piece was then securely attached at one end to a force transducer and at the other to a metal pin on a mounting block, as described in part (Harrison et al. Reprod Fertil Dev. 1997; 9(7):731-40, Harrison and Flatman Am J Physiol. 1999 December; 277(6 Pt 2):R1646-53).\nAorta sections were immersed into oxygenated and thermostatically controlled chambers (37° C.), having an internal depth and diameter of 5.5 and 3.2 cm, respectively, and holding 44 ml of phosphate buffered saline (0.15 M PBS, pH 7.4) comprising in mM; NaCl 136.91, KCl 2.68, Na2HPO4 8.08 and NaH2PO4 1.66. Force was measured using a FTO3 force displacement transducer (Grass Instrument, West Warwick, R.I.) connected to a home-built bridge amplifier which was interfaced with a 8S PowerLab A/D Converter (ADInstruments, Chalgrove, Oxfordshire, UK). […] The PowerLab 8S A/D converter was connected to an iBook G4 running Chart v.5.4 Software (AD Instruments, Australia). The data recording was at a sampling speed of 40.000 data samples per second (40 KHz) and the input impedance of the amplifier was 200 MΩ differential\nas §2, with “This final level of tension was by no means close to the physiological maximum force recorded in aorta sections.” left out\nThis fall in the recording trace was measured over time using the Average Slope calculation available as part of Chart v.5.4 Software (AD Instruments, Australia).\n(§3) LaPlace's equation assumes the tension (T) in the wall of a hollow cylinder is directly proportional to the cylinders radius (r) and the pressure (p) across the wall, caused by the flow inside the cylinder, such that T=p×r. If one assumes that the tension in the wall of the aorta sections is equivalent to that recorded by the force transducer as the result of a manual stretch, then the pressure that would have given rise to such an increase in tension can be calculated using LaPlace's equation and the measured radius of each aorta section."}, "[3]": {"tested_on": "abdominal aorta sections of bypass and sham operated rats", "test": "Elastic recoil of aorta sections from bypass- and sham-operated rats given AKG", "assay_type": "in vivo, Sprague Dawley rats", "experimental": "A dissected portion of the abdominal aorta, prior to the right- and left common iliac arteries, was carefully cleaned to remove adhering tissues.\nForce was measured using a FTO3 force displacement transducer (Grass Instrument, West Warwick, R.I.) connected to a home-built bridge amplifier which was interfaced with a 8S PowerLab A/D Converter (ADInstruments, Chalgrove, Oxfordshire, UK).\nThe recorded signal was adjusted to zero for un-tensioned aorta sections with the aid of an offset dial mounted on the pre-amplifier unit. Each aorta section was then exposed to approx. 5 step-wise increases in tension (each step being approx. 0.09 N), until a final maximal tension of 0.49 N (measured using the FT03 Grass Force transducer) was achieved. […] Aorta sections were subsequently removed and weighed.\nas §3\nData are presented as mean±SE."}, "[4]": {"details": "elderly mice fed 2% w/v in pellets for 182 days, n=6, mean±SE"}}, "note": "“Also recorded” adds a separate entry of the source.", "data": [{"compound": "O=C([O-])CCC(=O)C(=O)[O-].[Ca+2]", "note": "[Ca−AKG, calcium alpha-ketoglutarate]", "values": [{"measurement": "number of successful stretches without rupture, First Replicate", "setting": "[1]", "result": "4 out of 6"}, {"measurement": "number of successful stretches without rupture, Second Replicate", "setting": "[1]", "result": "5 out of 6"}, {"measurement": "successful stretches without rupture, Mean (%)", "setting": "[1]", "result": 75.0, "unit": "%"}, {"measurement": "elasticity of aorta sections (elastic recoil), first series of stretches", "setting": "[2]; [4]", "result": "6.4×10^−5±2.7×10^−6 N ms^−1 mg^−1 wet wt"}, {"measurement": "effect compared to Na−AKG group", "setting": "[2]; elderly mice, arterial elasticity", "result": "better effects"}, {"measurement": "effect on arterial elasticity compared with the control mice", "setting": "[2]; elderly mice, first stretch series (FIG. 4)", "result": "significant effect"}, {"measurement": "decrease in elastic recoil, second versus first series", "setting": "[2]", "result": 94, "unit": "%"}]}, {"compound": "O=C(O)CCC(=O)C(=O)O", "note": "[AKG, alpha-ketoglutaric acid]", "values": [{"measurement": "effect of AKG-intake on arterial elasticity in bypass-operated rats", "setting": "[3]; B+AKG versus B−AKG, P=0.047", "result": "significant effect; also recorded: positive effect"}, {"measurement": "effect of AKG-intake on aorta elasticity in sham-operated control rats", "setting": "[3]; S+AKG versus S−AKG, P=0.44", "result": "no effect"}]}, {"compound": "O=C([O-])CCC(=O)C(=O)[O-].[Na+].[Na+]", "note": "[Na−AKG, sodium alpha-ketoglutarate]", "values": [{"measurement": "number of successful stretches without rupture, First Replicate", "setting": "[1]", "result": "4 out of 6"}, {"measurement": "number of successful stretches without rupture, Second Replicate", "setting": "[1]", "result": "5 out of 6"}, {"measurement": "successful stretches without rupture, Mean (%)", "setting": "[1]", "result": 75.0, "unit": "%"}, {"measurement": "uptake after enteral administration", "result": "faster uptake after enteral administration with higher peak blood levels"}, {"measurement": "elasticity of aorta sections (elastic recoil), first series of stretches", "setting": "[2]; [4]", "result": "4.3×10^−5±1.6×10^−6 N ms^−1 mg^−1 wet wt"}, {"measurement": "elasticity of aorta sections (elastic recoil), second series of stretches", "setting": "[2]; elderly mice fed 2% w/v in pellets for 182 days, n=6, mean±SE, control 3.4×10^−6", "result": "3.7×10^−6±1.1×10^−6 N ms^−1 mg^−1 wet wt"}, {"measurement": "decrease in elastic recoil, second versus first series", "setting": "[2]", "result": 91, "unit": "%"}]}]}
